# Source: patent publication EP0598515A1, “Method for herbicidal activity-enhancing, activity-enhanced herbicidal composition and activity-enhancing composition” (ISHIHARA SANGYO KAISHA LTD., priority 1992, dated 1994)
# Like-named read-outs stand apart in the source and are kept apart here.
# What was measured:
# Assay type in all cases: in vivo
# [1] = system: johnsongrass (Sorghum halepense L.); assay: Test Example 10: pot test on rhizome plants, Example 8 suspension concentrate with Frigate; conditions: Sorghum halepense, duplicate; for inhibition at 20 g/ha: Compound A 20 g/ha; for inhibition at 30 g/ha: Compound A 30 g/ha; for inhibition at 40 g/ha: Compound A 40 g/ha; for inhibition at 10 g/ha: Compound A 10 g/ha
# Procedure: Rhizomes of johnsongrass (Sorghum halepense L.) induced to germinate were transplanted in 1/150,000-hectare pots filled with upland soil and arranged in a duplicate system. When the johnsongrass plants grew to a 3- to 6-leaf stage, the oil-based suspension concentrate obtained in Example 8 was diluted with 200 liters/hectare of water containing a predetermined amount of Frigate and was applied foliarly to the plants with a small spray gun.
# Seventeen days and fifty six days after treatment (D.A.T.) the growth inhibition of plants was evaluated with visual observation in the same manner as in Test Example 1 and are shown in Table 10.
# [2] = system: Velvetleaf (Abutilon theophrasti MEDIC.); assay: Test Example 9: pot test, Example 8 suspension concentrate with Frigate; conditions: 22 days after treatment; for inhibition at 20 g/ha: Compound A 20 g/ha; for inhibition at 40 g/ha: Compound A 40 g/ha
# Procedure: (§1) Velvetleaf (Abutilon theophrasti MEDIC.) and common cocklebur (Xanthium strumarium L.) seeds were sown in 1/1,000,000-hectare pots filled with upland soil and arranged in a duplicate system. When the velvetleaf plants and common cocklebur plants grew to a 2.1- and 2.3-leaf stage, respectively, the oil-based suspension concentrate obtained in Example 8 was diluted with 500 liters/hectare of water containing a predetermined amount of Frigate and was applied foliarly to the plants with a small spray gun.
# (§2) Twenty two days after treatment, the growth inhibition of plants was evaluated with visual observation in the same manner as in Test Example 1 and are shown in Table 9.
# [3] = system: common cocklebur (Xanthium strumarium L.); assay: as above; conditions: 22 days after treatment; for inhibition at 40 g/ha: Compound A 40 g/ha
# Procedure: as §1, §2
# [4] = 408 h, Frigate: No addition, 17 days after treatment, read-out: Growth Inhibition (%) of Johnsongrass 17 D.A.T.
# [5] = 1344 h, Frigate 0.1 % by volume, 56 days after treatment, read-out: Growth Inhibition (%) of Johnsongrass 56 D.A.T.
# [6] = 1344 h, Frigate 0.2 % by volume, 56 days after treatment, read-out: Growth Inhibition (%) of Johnsongrass 56 D.A.T.
# [7] = 1344 h, Frigate: No addition, 56 days after treatment, read-out: Growth Inhibition (%) of Johnsongrass 56 D.A.T.
# [8] = Abutilon theophrasti, 528 h, Frigate 0.125 % by volume, duplicate, read-out: Growth Inhibition (%) Velvetleaf
# [9] = Abutilon theophrasti, 528 h, Frigate 0.25 % by volume, duplicate, read-out: Growth Inhibition (%) Velvetleaf
# [10] = Abutilon theophrasti, 528 h, Frigate: No addition, duplicate, read-out: Growth Inhibition (%) Velvetleaf
# [11] = Frigate 0.25 % by volume, Compound A 10 g/ha, duplicate
structure (smiles),measurement,setting,value
"COc1cc(OC)nc(NC(=O)NS(=O)(=O)c2ncccc2C(=O)N(C)C)n1 [Compound A, N-[(4,6-dimethoxypyrimidin-2-yl)aminocarbonyl]-3-dimethylaminocarbonyl-2-pyridinesulfonamide]",inhibition at 20 g/ha,[1]; [4],65%
same,inhibition at 30 g/ha,[1]; [4],60%
same,inhibition at 40 g/ha,[1]; [4],65%
same,inhibition at 10 g/ha,[1]; [5],100%
same,inhibition at 20 g/ha,[1]; [5],100%
same,inhibition at 30 g/ha,[1]; [5],100%
same,inhibition at 10 g/ha,[1]; [6],100%
same,inhibition at 20 g/ha,[1]; [6],100%
same,inhibition at 30 g/ha,[1]; [6],100%
same,inhibition at 20 g/ha,[1]; [7],90%
same,inhibition at 40 g/ha,[1]; [7],100%
same,inhibition at 10 g/ha,"[2]; Abutilon theophrasti, 528 h, Frigate 0.125 % by volume, Compound A 10 g/ha, duplicate, read-out: Growth Inhibition (%) Velvetleaf",30%
same,inhibition at 20 g/ha,[2]; [8],65%
same,inhibition at 40 g/ha,[2]; [8],85%
same,inhibition at 10 g/ha,"[2]; Abutilon theophrasti, 528 h, Frigate 0.25 % by volume, Compound A 10 g/ha, duplicate, read-out: Growth Inhibition (%) Velvetleaf",40%
same,inhibition at 20 g/ha,[2]; [9],80%
same,inhibition at 40 g/ha,[2]; [9],85%
same,inhibition at 10 g/ha,"[2]; Abutilon theophrasti, 528 h, Frigate 0.5 % by volume, Compound A 10 g/ha, duplicate, read-out: Growth Inhibition (%) Velvetleaf",60%
same,inhibition at 20 g/ha,"[2]; Abutilon theophrasti, 528 h, Frigate 0.5 % by volume, duplicate, read-out: Growth Inhibition (%) Velvetleaf",80%
same,inhibition at 40 g/ha,"[2]; Abutilon theophrasti, 528 h, Frigate 0.5 % by volume, read-out: Growth Inhibition (%) Velvetleaf",90%
same,inhibition at 20 g/ha,[2]; [10],20%
same,inhibition at 40 g/ha,[2]; [10],65%
same,inhibition at 50 g/ha,"[2]; Abutilon theophrasti, 528 h, Frigate: No addition, Compound A 50 g/ha, duplicate, read-out: Growth Inhibition (%) Velvetleaf",75%
same,inhibition at 60 g/ha,"[2]; Abutilon theophrasti, 528 h, Frigate: No addition, Compound A 60 g/ha, duplicate, read-out: Growth Inhibition (%) Velvetleaf",80%
same,Growth Inhibition (%) Velvetleaf,[2]; [11],50%
same,Growth Inhibition (%) Common Cocklebur,[3]; [11],25%
same,Growth Inhibition (%) Common Cocklebur,"[3]; Frigate: No addition, Compound A 20 g/ha, duplicate",40%
same,inhibition at 10 g/ha,"[3]; Xanthium strumarium, 528 h, Frigate 0.125 % by volume, Compound A 10 g/ha, duplicate, read-out: Growth Inhibition (%) Common Cocklebur",35%
same,inhibition at 20 g/ha,"[3]; Xanthium strumarium, 528 h, Frigate 0.125 % by volume, Compound A 20 g/ha, duplicate, read-out: Growth Inhibition (%) Common Cocklebur",80%
same,inhibition at 40 g/ha,"[3]; Xanthium strumarium, 528 h, Frigate 0.125 % by volume, duplicate, read-out: Growth Inhibition (%) Common Cocklebur",100%
same,inhibition at 10 g/ha,"[3]; Xanthium strumarium, 528 h, Frigate 0.25 % by volume, Compound A 10 g/ha, duplicate, read-out: Growth Inhibition (%) Common Cocklebur",30%
same,inhibition at 20 g/ha,"[3]; Xanthium strumarium, 528 h, Frigate 0.25 % by volume, Compound A 20 g/ha, duplicate, read-out: Growth Inhibition (%) Common Cocklebur",95%
same,inhibition at 40 g/ha,"[3]; Xanthium strumarium, 528 h, Frigate 0.25 % by volume, duplicate, read-out: Growth Inhibition (%) Common Cocklebur",100%
same,inhibition at 10 g/ha,"[3]; Xanthium strumarium, 528 h, Frigate 0.5 % by volume, Compound A 10 g/ha, duplicate, read-out: Growth Inhibition (%) Common Cocklebur",60%
same,inhibition at 20 g/ha,"[3]; Xanthium strumarium, 528 h, Frigate 0.5 % by volume, Compound A 20 g/ha, duplicate, read-out: Growth Inhibition (%) Common Cocklebur",98%
same,inhibition at 40 g/ha,"[3]; Xanthium strumarium, 528 h, Frigate 0.5 % by volume, read-out: Growth Inhibition (%) Common Cocklebur",100%
same,inhibition at 40 g/ha,"[3]; Xanthium strumarium, 528 h, Frigate: No addition, duplicate, read-out: Growth Inhibition (%) Common Cocklebur",85%
same,inhibition at 50 g/ha,"[3]; Xanthium strumarium, 528 h, Frigate: No addition, Compound A 50 g/ha, duplicate, read-out: Growth Inhibition (%) Common Cocklebur",95%
same,inhibition at 60 g/ha,"[3]; Xanthium strumarium, 528 h, Frigate: No addition, Compound A 60 g/ha, duplicate, read-out: Growth Inhibition (%) Common Cocklebur",98%
